# Test results taken from patent US11771694B2, “Arylamide compounds for treatment and prevention of viral infections” (priority 2020, dated 2023).
# Like-named read-outs stand apart in the source and are kept apart here.
# Key:
# Serratia marcescens = assay: Broth microdilution MIC; assay type: cell-based; conditions: 2-3 isolates/organism, read-out: MIC
# SARS-CoV-2 [1] = assay type: cell-based; conditions: Calu-3; MOI 0.05; 24 hpi
# [2] = system: Venezuelan equine encephalitis virus (VEEV) TC83; assay type: cell-based; conditions: U87MG cells; 10 μM; virus treated only; 24 hpi
# LPS-induced IL-6 release = assay: LPS-induced IL-6 release, NR8383 cells, ELISA; assay type: cell-based; conditions: Rattus norvegicus, 8-hour exposure, read-out: IC50, inhibition of LPS-induced IL-6 release
# [3] = system: SARS-CoV-2 (Washington strain 2019-nCoV/USA-WA1/2020); assay: microbe, parasite or virus in culture; assay type: cell-based; conditions: Severe acute respiratory syndrome coronavirus 2, Vero
# [4] = system: S. aureus and coagulase-negative staphylococci; assay: Broth microdilution MIC, defined phenotypes in Staphylococcus species
# [5] = system: SARS-CoV-2 spike pseudotyped luciferase virus; assay type: cell-based
# [6] = system: stationary phase cultures of MSSA and MRSA; assay: Time-kill against stationary phase cultures of MSSA and MRSA; assay type: cell-based, Staph. aureus; conditions: stationary phase MSSA and MRSA; 2×MIC
# Strept. pneumoniae = assay: Broth microdilution MIC; assay type: cell-based; conditions: Streptococcus pneumoniae; Strept. pneumoniae; 2-3 isolates/organism; read-out: MIC
# Haemophilus influenzae = assay: Broth microdilution MIC; assay type: cell-based; conditions: 2-3 isolates/organism, read-out: MIC
# Staph. spp. coagulase- = assay: Broth microdilution MIC; assay type: cell-based; conditions: Staph. spp. coagulase-; 2-3 isolates/organism; read-out: MIC
# Strept. viridians = assay: Broth microdilution MIC; assay type: cell-based; conditions: Strept. viridians; 2-3 isolates/organism; read-out: MIC
# [7] = system: LPS-induced MMP-9 release; assay: LPS-induced MMP-9 release, NR8383 cells, ELISA; assay type: cell-based; conditions: Rattus norvegicus, 8-hour exposure, read-out: IC50, inhibition of LPS-induced MMP-9 release
# [8] = system: mammalian cells (RBCs, 3T3, HepG2); assay type: cell-based
# in vitro = conditions: African green monkey
# Escherichia coli = assay: Broth microdilution MIC; assay type: cell-based; conditions: 2-3 isolates/organism, read-out: MIC
# HCoV-NL63 = assay: Virus yield reduction assay, HCoV-NL63 on Vero cells; assay type: cell-based; conditions: Human coronavirus NL63, 48 hours post-infection
# Description: (§1) For these assays, brilacidin was included during viruses infection and post infection stages. The EC50 values were calculated from best-fit dose response curves with variable slope in Prism 8.
# HCoV-OC43 = assay: Virus yield reduction assay, HCoV-OC43 on RD cells; assay type: cell-based; conditions: Betacoronavirus 1, 48 hours post-infection
# Description: as §1
# Enterobacter cloacae = assay: Broth microdilution MIC; assay type: cell-based; conditions: 2-3 isolates/organism, read-out: MIC
# SARS-CoV-2 [9] = conditions: Calu-3; 10 μM; 24 hpi
# Citrobacter koseri = assay: Broth microdilution MIC; assay type: cell-based; conditions: 2-3 isolates/organism, read-out: MIC
# [10] = system: LPS-induced MCP-1 release; assay: LPS-induced MCP-1 release, NR8383 cells, ELISA; assay type: cell-based; conditions: Rattus norvegicus, 8-hour exposure, read-out: IC50, inhibition of LPS-induced MCP-1 release
# [11] = system: LPS-induced CINC-3 release; assay: LPS-induced CINC-3 release, NR8383 cells, ELISA; assay type: cell-based; conditions: Rattus norvegicus, 8-hour exposure, read-out: IC50, inhibition of LPS-induced CINC-3 release
# Vero cells = conditions: 24 hours
# Klebsiella oxtoca = assay: Broth microdilution MIC; assay type: cell-based; conditions: Klebsiella oxtoca; 2-3 isolates/organism; read-out: MIC
# [12] = system: Acute Bacterial Skin and Skin Structure Infections (ABSSSI); assay: Phase 2 trials in ABSSSI; assay type: in vivo, human; conditions: single dose and 3-day regimen, IV infusion; Phase 2b CTIX-BRI-204
# Excerpt: Further details on clinical success rates by baseline pathogen for the ABSSSI Phase 2b study are presented in FIG. 26 (blank cells=no participants presented with the specified baseline pathogen. EOT: End of Treatment. STFU: Short-Term Follow-Up).
# [13] = system: LPS-induced TNF-α release; assay: LPS-induced TNF-α release, NR8383 cells, ELISA; assay type: cell-based; conditions: Rattus norvegicus, 8 h; read-out: IC50, inhibition of LPS-induced TNF-α release
# [14] = system: LPS-induced IL-1β release; assay: LPS-induced IL-1β release, NR8383 cells, ELISA; assay type: cell-based; conditions: Rattus norvegicus, 8-hour exposure, read-out: IC50, inhibition of LPS-induced IL-1β release
# [15] = system: dextran sulfate sodium (DSS) induced colitis; assay: Mouse DSS colitis model; assay type: in vivo, mice
# HCoV-229E = assay: Virus yield reduction assay, HCoV-229E on Huh-7 cells; assay type: cell-based; conditions: Human coronavirus 229E, 48 hours post-infection
# Description: as §1
# Entero. faecium (VRE) = assay: Broth microdilution MIC; assay type: cell-based; conditions: Enterococcus faecium; Entero. faecium (VRE); 2-3 isolates/organism; read-out: MIC
# [16] = system: Rift Valley fever virus (RFFV); assay type: cell-based; conditions: Vero; 10, 25 and 50 μM; virus treated only; 24 hpi
# Strept. agalactiae = assay: Broth microdilution MIC; assay type: cell-based; conditions: Streptococcus agalactiae; Strept. agalactiae; 2-3 isolates/organism; read-out: MIC
# [17] = brilacidin 400 mg/kg, 5-ASA 50 mg/kg per rectum, vs DSS-treated control group, end of study
smiles,measurement,setting,value
N=C(N)NCCCCC(=O)Nc1cc(C(F)(F)F)cc(NC(=O)c2cc(C(=O)Nc3cc(C(F)(F)F)cc(NC(=O)CCCCNC(=N)N)c3OC3CCNC3)ncn2)c1OC1CCNC1 (centres unmarked) [brilacidin],MIC,Serratia marcescens,32 mg/L
same,"inhibition of infectious titer, each drug alone",SARS-CoV-2 [1],up to 90%
same,infectious viral titer compared to the DMSO-control,[2],statistically significant reduction
same,IC50,LPS-induced IL-6 release,0.274 µM
same,inhibition at 10 µM,[3]; read-out: inhibition of SARS-CoV-2 (plaque assay),72%
same,inhibition at 10 µM,[3]; read-out: inhibition of infectious viral titer,53%
same,Brilacidin MIC,"[4]; DAP-NS, OXA-R, 5 isolates",0.5-2
same,Brilacidin MIC,"[4]; Drug-Susceptible, 217 isolates",0.25-1
same,Brilacidin MIC,"[4]; LZD, OXA-R, 5 isolates",0.5-1
same,Brilacidin MIC,"[4]; OXA-R, 161 isolates",0.25-2
same,Brilacidin MIC,"[4]; VRSA/VISA, DAP-NS, OXA-R, 3 isolates",0.5-1
same,Brilacidin MIC,"[4]; VRSA/VISA, OXA-R, 7 isolates",0.5-1
same,inhibition (luciferase activity) vs vehicle control,[5]; 0.1 μg/ml,29%
same,inhibition (luciferase activity) vs vehicle control,[5]; 100 μg/ml,85%
same,time-kill at >10^3 Log10 Reductions,[6],≤ 2 hours
same,MIC,Strept. pneumoniae,4 to 8 mg/L
same,MIC,Haemophilus influenzae,4 to 8 mg/L
same,MIC,Staph. spp. coagulase-,0.25 to 0.5 mg/L
same,MIC,Strept. viridians,2 to 8 mg/L
same,IC50,[7],2.3 µM
same,folds more selective than natural HDPs,[8],50 to 100 folds
same,CC50,in vitro,79.5 ± 2.42 µM
same,MIC,Escherichia coli,1 to 2 mg/L
same,EC50,HCoV-NL63,2.45 ± 0.052 µM
same,EC50,HCoV-OC43,4.81 ± 0.95 µM
same,MIC,Enterobacter cloacae,0.5 to 4 mg/L
same,decrease in the viral genomic copies,SARS-CoV-2 [9],33%
same,MIC,Citrobacter koseri,1 to 2 mg/L
same,IC50,[10],0.75 µM
same,IC50,[11],0.425 µM
same,cell viability compared to the DMSO vehicle control,Vero cells; concentrations higher than 40 μM,"dose-dependent, statistically significant decrease in cell viability"
same,cell viability compared to the DMSO vehicle control,Vero cells; up to 40 μM,did not affect cell viability
same,MIC,Klebsiella oxtoca,2 to 8 mg/L
same,efficacy (early clinical response),[12],comparable to that a 7-day regimen of daptomycin
same,IC50,[13],0.442 µM
same,IC50,[14],0.702 µM
same,rectal bleeding,"[15]; 400 mg/kg per rectum Days 7-11, by Day 11 vs DSS-treated control group",significant decrease
same,stool consistency,"[15]; 400 mg/kg per rectum Days 7-11, vs DSS-treated control group",significantly more firm
same,mean reduction in IL-1β in distal colon tissue,[15]; [17],27%
same,mean reduction in IL-6 in distal colon tissue,[15]; [17],40%
same,EC50,HCoV-229E,1.95 ± 0.067 µM
same,MIC,Entero. faecium (VRE),1 mg/L
same,inhibition compared to the DMSO-control,[16],dose-dependent inhibition
same,MIC,Strept. agalactiae,2 mg/L
